Legend:
[1] = system: 175 kdyn contusive spinal cord injury; assay: Contusive spinal cord injury; type: in vivo, Sprague-Dawley rats; details: 1 mg/kg
Method: FIG. 12. COG 112 reduces the size of the lesion in white matter after spinal cord injury by inhibition of microglia activation. Rats received 175 kdyn contusive spinal cord injury and subsequent treatment with saline or COG 112 starting immediately after injury for 1 week. The injured area and spared white matter from the injured spinal cord were evaluated and quantified by luxol fast blue (LFB) staining area (top left panel). Activation of microglia was examined by staining adjacent sections with an ED1 antibody (bottom left panel). […] Scale bar=1000 μm. Similar to MS, spinal cord injury (SCI) is another devastating neurological disorder manifested as massive demyelination in the white matter of the spinal cord and extensive microglial activation surrounding the injured site. To examine the therapeutic effect of ApoE analogs on spinal cord injury, COG 112 (SEQ ID NO: 5) was administered to rats immediately after a contusive spinal cord injury. […] The second dose of COG 112 or vehicle was given i.v. 5 hours later followed by daily i.p. doses for 7 days. The animals were sacrificed on day 7 and the spinal cord spanning the injured site was subjected to histological examination. The injured area and spared white matter of the spinal cord were evaluated by Luxol Fast blue (LFB) staining. Activation of microglia was examined by staining adjacent sections with an antibody to ED1. […] Most impressively, about 50% of spared tissue remained at the epicenter of COG 112-treated animals, while only 15% remained in control animals. […] The microglia surrounding the injured spinal cord were robustly activated as shown by ED1-immunoreactivity 7 days after contusion (FIG. 12, bottom panels).

enriched OPCs = assay: OPC proliferation (BrdU) in enriched OPC culture; type: cell-based, rat; details: 1 μM, three days in proliferation medium
Method: FIG. 10. ApoE analog promotes proliferation of OPCs in culture. Cultures enriched in OPCs were grown in proliferation media containing BrdU in the presence and absence of 1 μM COG 112 or a peptide control. Cells were subsequently labeled with Hoescht stain to detect nuclei, a BrdU antibody to detect proliferating cells, and an A2B5 antibody to identify OPCs (left panel). The number of cells per field were counted for each condition (right panel). In graph, the Hoescht bars correspond to the total number of A2B5^+/Hoescht^+ cells, while the BrdU bars correspond to […] cells.
Enriched OPCs were collected by shaking a primary culture of P2 rat pup brain. Proliferation medium containing COG 112 (1 μM), BrdU (20 μM), 10 ng/mL FGF and PDGF was added to the enriched OPC cultures. After three days in culture, cells were stained with Hoescht stain to show nuclei, a BrdU antibody to identify proliferating cells, and an A2B5 antibody to identify OPCs (FIG. 10). Antennapedia, the prefix peptide of COG 112, was used as a control.

sciatic nerve crush = assay: Sciatic nerve crush model; type: in vivo, C57BL/6J male mice; details: 1 mg/kg i.p. daily
Method: FIG. 13. COG 112 attenuates axonal neurodegeneration and promotes functional recovery after sciatic nerve crush. C57BL mice were subjected to sciatic nerve crush on left hindlimb using a number 5 jeweler's forceps. The animals received lactated Ringer's buffer or COG 112 (1 mg/kg) by i.p. 2 hr after crush followed by daily dose for 14 days. (A) To assess functional deficits after nerve crush, footprints were recorded and the Sciatic Functional Index (SFI) was calculated. […] Treatment with COG 112 also robustly augmented the mRNA expression of peripheral myelin marker P0 (B) and axonal regeneration marker GAP43 (C) quantified by real-time PCR. **P<0.01; P<0.001. (D) On day 4 after injury, the sciatic nerves were dissected and stained with FD NeuroSilver kit to reveal degenerating axons manifested as dotted lines as depicted in the schematic above the micrographs.
We used a sciatic nerve crush model to investigate whether ApoE analogs can prevent functional loss and/or promote functional recovery after nerve injury. C57BL/6J male mice were anesthetized and the sciatic nerve on left hindlimb was crushed with Number 5 Jeweler's forceps at mid-thigh level for 30 seconds. The animals were then randomly assigned to receive either COG 112 (1 mg/kg, i.p.) or lactated Ringer's buffer two hours after crush followed by daily dose for 14 days. On day 4, two animals from each group were sacrificed and crushed sciatic nerves were dissected and silver stained using a FD NeuroSilver® staining kit to reveal degenerating axons.
On day 7 and 14, footprints for each animal were taken for quantitative assessment of hindlimb motor function. A Sciatic Functional Index (SFI), which takes into account the relationship between toes and feet of an animal's hindlimb, was calculated for each animal as previously described (Bain et al. (1989) Plast. Reconstr. Surg., Vol. 83(1):129-38). SFI values of zero and […] indicate normal and complete dysfunction, respectively.
In order to examine the effect of COG 112 on remyelination and regeneration of axons, segments of sciatic nerves spanning the crushed sites were dissected and collected on day 3, 7 and 14 for examination of P0, a marker of peripheral myelination, and growth associated protein 43 (GAP43), a marker of axonal regeneration, mRNA by real time PCR.

Ac-RQIKIWFQNRRMKWKKCLRVRLASHLRKLRKRLL-NH2 [COG 112]
ED1 immunoreactive area in the injured spinal cord (microglia activation) ([1]; 7 days after contusion): dramatically decreased
spared tissue remaining at the epicenter ([1]; day 7, control animals 15%): about 50%
percentage of spared white matter to total spinal cord area ([1]; day 7, epicenter to 2.4 mm rostral or caudal, vs saline): significantly higher
number of A2B5+/BrdU+ cells (enriched OPCs): significantly increased
expression of GAP43 mRNA (real time PCR) (sciatic nerve crush; 2 weeks): robustly increased
expression of P0 mRNA (real time PCR) (sciatic nerve crush; 2 weeks): robustly increased
functional recovery (Sciatic Functional Index) (sciatic nerve crush; 2 weeks, vs vehicle, P<0.001): significantly improved functional recovery
axonal degeneration (silver staining) (sciatic nerve crush; day 4): significantly reduced axonal degeneration
